Data as given in patent US4491594A, “Method for treatment of seizures” (Eisai Co., Ltd., priority 1983, dated 1985).

How the values were obtained:
[1] = test system: penicillin cortical focus; experiment: EEG spike discharge in penicillin cortical focus epilepsy model (Co Q10 given after penicillin G); format: in vivo, Male Sprague-Dawley rats
Source text: (§1) Male Sprague-Dawley rats each having a body weight in the range of 250 to 350 g were used for the experiment.
(§2) Each test rat, anesthetized with ether and immobilized with succinylcholine was subjected to tracheal intubation and fixed to a stereotaxic instrument under artificial respiration. A hole about 3 mm in diameter was made at a part of the skull corresponding to the left-side sensory-motor cortex and the dura mater was cut out to expose the cerebral cortex surface. The skull was immersed in a physiological saline solution. A 2 mm square filter paper impregnated with […] of penicillin (penicillin G) was then applied directly to the cerebral surface to form a penicillin cortical focus. This focus is a typical epilepsy model.
Each rat skull was bared and screw electrodes, four in all, were fixedly planted at the following four locations: two sites 2 mm to the left and right, respectively, from a position 2 mm forward of the bregma, and two sites 3 mm to the left and right, respectively, from a position 6 mm rearward of the bregma. Unipolar and bipolar electroencephalograms (EEG) were recorded by the electrodes. Electrocardiogram readings were simultaneously taken. EEG lead measurements were conducted of (1) four bipolar leads comprising a lead from the left sincipital region to the left occipital region, a lead from the right sincipital region to the right occipital region, a lead from the left to the right sincipital region, and a lead from the left to the right occipital region, and (2) four unipolar leads comprising leads from each of the left sincipital region, left occipital region, right sincipital region and right occipital region.
The corticogram shown in FIG. 6 illustrates the procedure employed. The recordings were carried out from 4 epidural electrodes. LF-LO: bipolar recording from left frontal electrode (LF) to left occipital electrode (LO), RF-RO: bipolar recording from right frontal electrode (RF) to right occipital electrode (RO), LF-RF: bipolar recording from LF to RF, LO-RO: bipolar recording from LO to RO, LF-E: unipolar recording from LF, LO-E: unipolar recording from LO, RF-E: unipolar recording from RF, RO-E: unipolar recording from RO.
83.5 U/μl of penicillin G was absorbed into a 2 mm square filter paper and directly applied to the cerebral cortex surface from an opening formed around the left sensory-motor cortex. coenzyme Q10 (Co Q10) was administered intraperitoneally to each rat, and the EEG patterns were recorded in the same way as above. As a control, a solvent alone was administered intraperitoneally to control rats at the same rate.
Further experiments were conducted by the same procedure as used in Experimental Example 1, except that the time of the administration of coenzyme Q10 was changed. The results are shown in Table 1 below as Experimental Examples 2 to 4. In Table 1, PCG represents penicillin G.

Acute toxicity, rat = details: in vivo, read-out: acute dosages
Source text: (§3) The results of toxicity tests on coenzyme Q10 used in this invention are shown below.

Acute toxicity, mouse = details: in vivo, read-out: acute dosages
Source text: as §3

Wistar rats = experiment: Chronic toxicity, 26 weeks per os; format: in vivo, male and female Wistar rats; details: 6, 60 and 600 mg/kg/day per os, 26 successive weeks
Protocol: Coenzyme Q10 was forcibly administered per os to both male and female Wistar rats at doses of 6, 60 and 600 mg/kg/day for a period of 26 successive weeks. After this testing period, an examination of the general condition, a blood test, a urine test and a morphological observation (macroscopic and histologic) were conducted.

[2] = test system: penicillin cortical focus; experiment: Prevention of EEG spike discharge in penicillin cortical focus model (Co Q10 given before penicillin G); format: in vivo, Male Sprague-Dawley rats; details: Table 1, Experimental Example 4; 100 mg/kg Co Q10 first, PCG applied 64 minutes thereafter
Source text: as §1, §2
Each rat skull was bared and screw electrodes, four in all, were fixedly planted at the following four locations: two sites 2 mm to the left and right, respectively, from a position 2 mm forward of the bregma, and two sites 3 mm to the left and right, respectively, from a position 6 mm rearward of the bregma. Unipolar and bipolar electroencephalograms (EEG) were recorded by the electrodes. Electrocardiogram readings were simultaneously taken. […]

Solubility = format: physicochemical
[3] = Experimental Example 1, intraperitoneal
[4] = Table 1, Experimental Example 2, 100 mg/kg, 107 minutes after applying PCG
[5] = Table 1, Experimental Example 3, 100 mg/kg, 65 minutes after applying PCG

For `COC1=C(OC)C(=O)C(C/C=C(\C)CC/C=C(\C)CC/C=C(\C)CC/C=C(\C)CC/C=C(\C)CC/C=C(\C)CC/C=C(\C)CC/C=C(\C)CC/C=C(\C)CCC=C(C)C)=C(C)C1=O` [coenzyme Q10], which “duration of disappearance of the spike discharge” value (“duration” for short) [1, 3] is on record?
The value was “more than 200 minutes”.

And the “time to disappearance of the spike discharge after administration of coenzyme Q10” value [1, 3]?
The value was “about 10 minutes”.

What about the “duration” value [1, 4] of the same compound?
Its value is “more than 120 minutes”.

And the “time to disappearance of the spike discharge after administration of Co Q10” value [1, 4]?
The value was 20 min.

What about the “duration” value [1, 5] of the same compound?
Its value is “more than 60 minutes”.

And the “time to disappearance of the spike discharge after administration of Co Q10” value [1, 5]?
The value was 19 min.

And the LD50 (Acute toxicity, rat; im, intramuscular)?
Its LD50 is 500 mg/kg.

What about the LD50 (Acute toxicity, rat; iv, Intravous) of the same compound?
Its LD50 is 250 mg/kg.

And the LD50 (Acute toxicity, rat; oral)?
The LD50 was 4000 mg/kg.

What about the LD50 (Acute toxicity, rat; sc, subcutaneous) of the same compound?
The LD50 was 500 mg/kg.

And the LD50 (Acute toxicity, mouse; im, intramuscular)?
Its LD50 is 500 mg/kg.

What about the LD50 (Acute toxicity, mouse; iv, Intravous) of the same compound?
Its LD50 is 250 mg/kg.

What about the LD50 (Acute toxicity, mouse; oral) of the same compound?
The LD50 was 4000 mg/kg.

What about the LD50 (Acute toxicity, mouse; sc, subcutaneous) of the same compound?
The LD50 was 500 mg/kg.

What about the “general condition, blood test, urine test and morphological observation vs control group” value (Wistar rats) of the same compound?
The value was “No differences at all from the control group were observed”.

And the “time during which no spike discharge occurred” value [2]?
The value was “more than 80 minutes”.

And the solubility (Solubility; in chloroform, benzene, carbon tetrachloride, acetone and ether)?
Its solubility is “soluble”.

And the solubility (Solubility; in ethanol, water and methanol)?
The solubility was “insoluble”.
